The record followed here is patent US10202391B2, “Chemical compounds” (AstraZeneca AB, priority 2015, dated 2019).

As usually defined, the IC50 is the concentration at which inhibition is half-maximal.

Assay [1] concerns phospho-p90RSK in A375 cell line. As to the kind of experiment: A375 Phospho-p90RSK Cellular Assay. It counts as cell-based, human. Conditions: Homo sapiens, A375 cells, 2 hours incubation. The method, then: (§1) All compounds or DMSO (dimethyl sulphoxide) for the ERK2 Mass Spectrometry and A375 phospho-p90RSK assays were dispensed from source plates containing compounds at 10 mM in 100% (v/v) DMSO or 100% DMSO, directly into assay plates using an Echo 555 Acoustic dispenser (Labcyte Inc™). Depending on the assay, two separate plate preparations were followed. In Workflow A, 10 mM compound stocks were diluted 1:100 using a fixed-tip 96-head Agilent VPrep liquid handler (Agilent Technologies, Santa Clara, Calif.) to give four intermediate dilutions (10 mM, 100 μM, 1 μM, 10 nM). In Workflow B, 10 mM compound stocks were diluted 1:10 using a Tecan Freedom Evo (Tecan Group Ltd., Switzerland), and then 1:100 using the Echo 555 and Labcyte LX to produce three intermediate dilutions across three Labcyte qualified source plates (1 mM, 10 μM, 100 nM). These intermediate dilution plates were then used by the Echo 555 to generate final assay-ready compound plates with a 12 point dose range (10, 3, 1, 0.25, 0.1, 0.03, 0.01, 0.0025, 0.001, 0.0003, 0.0001, 0.0000125 μM) in order to calculate compound IC50s, with a total DMSO concentration in the assay of 1%. For the ERK2 Mass Spectrometry assay Workflow B was used. For the A375 phospho-p90RSK cell assay, the intermediate 1:100 dilution plate described in Workflow A was used by the Echo to dispense compounds and DMSO directly into the cell plates with a 12 point dose range (30, 10, 3.125, 1.25, 0.3, 0.1, 0.03125, 0.0125, 0.003, 0.001, 0.0003125, 0.00003 μM) in order to calculate compound IC50's, with a total DMSO concentration in the assay of 0.3%.
A375 Phospho-p90RSK Cellular Assay
A375 cells were cultured in cell media composed of DMEM (Dulbecco's modified Eagle's medium), 10% (v/v) Foetal Calf Serum and 1% (v/v) L-Glutamine. After harvesting, cells were dispensed into black, 384-well Costar plates (#3712, Corning) to give 2400 cells per well in a total volume of 40 μl cell media, and were incubated overnight at 37° C., 90% relative humidity and 5% CO2 in a rotating incubator. Test compounds and reference controls were dosed directly into the cell plates using a Labcyte Echo 555 acoustic dispenser. The cell plates were then incubated for 2 hours at 37° C. before being fixed by the addition of 20 μl 12% formaldehyde in PBS/A (4% final concentration), followed by a 20 minute room temperature incubation, and then a 2× wash with 150 μl PBS/A (phosphate buffered saline containing albumin) using a BioTek ELx405 platewasher. Cells were permeabilised with 20 μl 0.1% Triton X-100 in PBS/A for 20 minutes at room temperature, and then washed 1× with 100 μl PBS/A. Primary phospho-p90RSK (Thr359) (D1E9) rabbit monoclonal antibody (#8753, Cell Signaling Technology) was diluted 1:1000 in assay buffer (0.05% (v/v) Tween, 5% (v/v) Foetal Calf Serum, in PBS/A), 20 μl added per well, and plates were incubated at 4° C. overnight. Cell plates were washed 2× with 200 μl PBS/T (phosphate buffered saline containing Tween-20), then 20 μl 1:500 dilution in assay buffer of Alexa Fluor® 647 goat anti-rabbit IgG secondary antibody (#A31573, Molecular Probes, Life Technologies), with a 1:5000 dilution of Hoechst 33342, was added per well. Following a 90 minute incubation at room temperature, plates were washed 2× with 200 μl PBS/T, and 40 μl PBS/A was added per well. Stained cell plates were covered with black lid seals, and then read on a Cellomics ArrayScan™ VTI imaging platform (Thermo Scientific), using an XF53 filter with 10× objective, with a LED light source set-up to analyse nuclear staining with Hoechst 33342 (405 nm) and secondary antibody staining of phospho-p90RSK (647 nm). Data was analysed and IC50's were calculated using Genedata Screener® software.

For assay [2], the target named is T1, ERK2 (Homo sapiens, UniProt P28482).
T1 construct: made in house
The experiment in a line: ERK2 Rapidfire Mass Spectrometry Inhibition of Catalysis Assay. It counts as biochemical. Conditions: 1.2 nM ERK2, 16 μM Erktide, 120 μM ATP (measured Km), 15 minute pre-incubation; read-out: ERK2 Mass Spectrometry Enzyme IC50. How it is done: as §1
ERK2 Rapidfire Mass Spectrometry Inhibition of Catalysis Assay
MEK U911-activated ERK2 protein was expressed and purified in-house. Enzyme and substrate solutions were made up in assay buffer consisting of 50 mM Tris (pH 7.5), 10 mM MgCl2, 0.1 mM EGTA (ethylene glycol tetraacetic acid), 10 mM DTT (dithiothreitol) and 0.01% (v/v) CHAPS (3-[(3-Cholamidopropyl)dimethylammonio]-1-propanesulfonate). 1.2 nM ERK2 protein was prepared in assay buffer and 10 μl was dispensed into each well of a polypropylene, 384-well plate (#781201, Greiner) containing test and reference control compounds. […] The reaction was allowed to progress for 20 minutes at room temperature before being quenched by the addition of 80 al 1% (v/v) formic acid. The assay plates were then run on the RapidFire Mass Spectrometry platform (Agilent) to measure substrate (unphosphorylated Erktide) and product (phosphorylated Erktide) levels. Data was analysed and IC50's (half maximal inhibitory concentration) were calculated using Genedata Screener® software.

T1 sequence (P28482 whole entry): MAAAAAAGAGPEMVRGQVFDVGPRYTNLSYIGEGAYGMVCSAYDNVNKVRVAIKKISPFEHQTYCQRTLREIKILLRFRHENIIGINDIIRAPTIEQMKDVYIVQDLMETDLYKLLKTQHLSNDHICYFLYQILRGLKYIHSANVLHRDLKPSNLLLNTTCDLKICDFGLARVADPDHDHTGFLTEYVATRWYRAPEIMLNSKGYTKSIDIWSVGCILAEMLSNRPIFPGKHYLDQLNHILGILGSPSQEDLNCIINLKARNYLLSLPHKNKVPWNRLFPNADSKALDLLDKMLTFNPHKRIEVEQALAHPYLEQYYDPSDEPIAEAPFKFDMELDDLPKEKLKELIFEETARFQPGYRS

With `C[C@H]1Cn2cc(-c3ccnc(Nc4ccnn4C)n3)nc2C(=O)N1Cc1cccc(Cl)c1` [Example 2, (S)-7-(3-Chlorobenzyl)-6-methyl-2-(2-((1-methyl-1H-pyrazol-5-yl)amino)pyrimidin-4-yl)-6,7-dihydroimidazo[1,2-a]pyrazin-8(5H)-one], the figures for the IC50 in assay [1] (A-375) and in assay [2] were 86 nM and 0.7 nM, respectively.

With `Cc1cnc(Nc2ccnn2C)nc1-c1cn2c(n1)C(=O)N(Cc1ccnc(C(F)(F)F)n1)[C@@H](C)C2` [Example 26, (S)-6-methyl-2-(5-methyl-2-((1-methyl-1H-pyrazol-5-yl)amino)pyrimidin-4-yl)-7-((2-(trifluoromethyl)pyrimidin-4-yl)methyl)-6,7-dihydroimidazo[1,2-a]pyrazin-8(5H)-one], the IC50 turned out to be 200 nM in assay [1] (A-375) and 1.1 nM in assay [2].

For the molecule `Cc1cnc(Nc2ccnn2C)nc1-c1cn2c(n1)C(=O)N(Cc1cccc(C(F)F)n1)[C@H](C)C2` [Example 37, (R)-7-((6-(Difluoromethyl)pyridin-2-yl)methyl)-6-methyl-2-(5-methyl-2-((1-methyl-1H-pyrazol-5-yl)amino)pyrimidin-4-yl)-6,7-dihydroimidazo[1,2-a]pyrazin-8(5H)-one], the results for the IC50 in assay [1] (A-375) and in assay [2] were 64 nM and 0.7 nM, respectively.

On to `Cc1cnc(Nc2ccnn2C)nc1-c1cn2c(n1)C(=O)N(Cc1ccc(F)c(F)c1)CC2` [Example 33, 7-(3,4-Difluorobenzyl)-2-(5-methyl-2-((1-methyl-1H-pyrazol-5-yl)amino)pyrimidin-4-yl)-6,7-dihydroimidazo[1,2-a]pyrazin-8(5H)-one], for which the IC50 in assay [1] (A-375, 2 h) came to 31 nM; in assay [2] it was 0.8 nM.

`COc1cc(CN2C(=O)c3nc(-c4nc(Nc5ccnn5C)ncc4C)cn3C[C@@H]2C)ccc1F` [Example 24, (S)-7-(4-Fluoro-3-methoxybenzyl)-6-methyl-2-(5-methyl-2-((1-methyl-1H-pyrazol-5-yl)amino)pyrimidin-4-yl)-6,7-dihydroimidazo[1,2-a]pyrazin-8(5H)-one]: the IC50 in assay [1] (A-375) stood at 84 nM; in assay [2], 0.5 nM.

For the molecule `C[C@H]1Cn2cc(-c3nc(Nc4ccnn4C)ncc3Cl)nc2C(=O)N1Cc1cccc(C(F)F)n1` [Example 9, (S)-2-(5-Chloro-2-((1-methyl-1H-pyrazol-5-yl)amino)pyrimidin-4-yl)-7-((6-(difluoromethyl)pyridin-2-yl)methyl)-6-methyl-6,7-dihydroimidazo[1,2-a]pyrazin-8(5H)-one], the IC50 in assay [1] (A-375) worked out at 190 nM; in assay [2] it was 0.5 nM.

In the case of `Cc1cnc(Nc2ccnn2C)nc1-c1cn2c(n1)C(=O)N(Cc1ccc(F)c(Cl)c1)CC2` [Example 12, 7-(3-Chloro-4-fluorobenzyl)-2-(5-methyl-2-((1-methyl-1H-pyrazol-5-yl)amino)pyrimidin-4-yl)-6,7-dihydroimidazo[1,2-a]pyrazin-8(5H)-one], the IC50 in assay [1] (A-375) was 3 nM; in assay [2], 0.6 nM.

For `C[C@H]1Cn2cc(-c3nc(Nc4ccnn4C)ncc3Cl)nc2C(=O)N1Cc1ccc(F)c(F)c1` [Example 6, (S)-2-(5-Chloro-2-((1-methyl-1H-pyrazol-5-yl)amino)pyrimidin-4-yl)-7-(3,4-difluorobenzyl)-6-methyl-6,7-dihydroimidazo[1,2-a]pyrazin-8(5H)-one], the IC50 was determined as 25 nM in assay [1] (A-375) and 0.6 nM in assay [2].

As for `C[C@H]1Cn2cc(-c3nc(Nc4ccnn4C)ncc3Cl)nc2C(=O)N1Cc1ccnc(C(F)(F)F)n1` [Example 8, (S)-2-(5-chloro-2-((1-methyl-1H-pyrazol-5-yl)amino)pyrimidin-4-yl)-6-methyl-7-((2-(trifluoromethyl)pyrimidin-4-yl)methyl)-6,7-dihydroimidazo[1,2-a]pyrazin-8(5H)-one], the results for the IC50 in assay [1] (A-375) and in assay [2] were 210 nM and 1.1 nM, respectively.

For the molecule `COC[C@H]1Cn2cc(-c3nc(Nc4ccnn4C)ncc3C)nc2C(=O)N1Cc1cccc(Cl)c1` [Example 17, (R)-7-(3-Chlorobenzyl)-6-(methoxymethyl)-2-(5-methyl-2-((1-methyl-1H-pyrazol-5-yl)amino)pyrimidin-4-yl)-6,7-dihydroimidazo[1,2-a]pyrazin-8(5H)-one], the concentration for half-maximal inhibition (IC50) in assay [1] (A-375) was found to be 5.2 nM; in assay [2], 0.9 nM.

For `C[C@H]1Cn2cc(-c3ccnc(Nc4ccnn4C)n3)nc2C(=O)N1Cc1ccc(F)c(Cl)c1` [Example 3, (S)-7-(3-Chloro-4-fluorobenzyl)-6-methyl-2-(2-((1-methyl-1H-pyrazol-5-yl)amino)pyrimidin-4-yl)-6,7-dihydroimidazo[1,2-a]pyrazin-8(5H)-one], the figures for the IC50 in assay [1] (A-375) and in assay [2] were 81 nM and 0.5 nM, respectively.

On to `Cc1cnc(Nc2ccnn2C)nc1-c1cn2c(n1)C(=O)N(Cc1cc(C(F)(F)F)ccn1)[C@@H](C)C2` [Example 29, (S)-6-Methyl-2-(5-methyl-2-((1-methyl-1H-pyrazol-5-yl)amino)pyrimidin-4-yl)-7-((4-(trifluoromethyl)pyridin-2-yl)methyl)-6,7-dihydroimidazo[1,2-a]pyrazin-8(5H)-one], for which the IC50 in assay [1] (A-375) worked out at 130 nM; in assay [2], 0.9 nM.

Turning to `COc1cccc(CN2C(=O)c3nc(-c4nc(Nc5ccnn5C)ncc4C)cn3C[C@@H]2C)c1` [Example 23, (S)-7-(3-Methoxybenzyl)-6-methyl-2-(5-methyl-2-((1-methyl-1H-pyrazol-5-yl)amino)pyrimidin-4-yl)-6,7-dihydroimidazo[1,2-a]pyrazin-8(5H)-one], the concentration for half-maximal inhibition (IC50) in assay [1] (A-375) was 40 nM; in assay [2] it was 0.6 nM.

In the case of `COC[C@H]1Cn2cc(-c3nc(Nc4ccnn4C)ncc3C)nc2C(=O)N1Cc1cccc(C(F)F)n1` [Example 16, (R)-7-((6-(Difluoromethyl)pyridin-2-yl)methyl)-6-(methoxymethyl)-2-(5-methyl-2-((1-methyl-1H-pyrazol-5-yl)amino)pyrimidin-4-yl)-6,7-dihydroimidazo[1,2-a]pyrazin-8(5H)-one], the IC50 in assay [1] (A-375) was determined as 120 nM; in assay [2], 1.1 nM.

For `Cc1cccc(CN2CCn3cc(-c4ccnc(Nc5ccnn5C)n4)nc3C2=O)n1` [Example 1, 2-(2-((1-Methyl-1H-pyrazol-5-yl)amino)pyrimidin-4-yl)-7-((6-methylpyridin-2-yl)methyl)-6,7-dihydroimidazo[1,2-a]pyrazin-8(5H)-one], the IC50 in assay [1] (A-375) came out at 17000 nM; in assay [2], 17.4 nM.

In turn, `COC[C@@H]1Cn2cc(-c3nc(Nc4ccnn4C)ncc3C)nc2C(=O)N1Cc1ccc(F)c(F)c1` [Example 35, Ethanesulfonic acid adduct of (S)-7-(3,4-difluorobenzyl)-6-(methoxymethyl)-2-(5-methyl-2-((1-methyl-1H-pyrazol-5-yl)amino)pyrimidin-4-yl)-6,7-dihydroimidazo[1,2-a]pyrazin-8(5H)-one] registered an IC50 in assay [1] (A-375) of 93 nM.
